{"source": "patent US11234954B2", "about": "“Low-dose doxepin for treatment of sleep disorders in elderly patients” (Pernix Sleep, Inc., priority 2006, dated 2022)", "key": {"[1]": {"tested_on": "primary elderly insomnia patients with sleep maintenance difficulties", "experiment": "Safety and TEAEs, Phase III elderly study (Example 2)", "protocol": "A phase III, randomized, double-blind, placebo-controlled, parallel-group, multicenter study was conducted to assess the long term efficacy and safety of two dose levels of doxepin HCl, 1 mg and 3 mg, in primary elderly insomnia patients with sleep maintenance difficulties.\nDoxepin 1 mg tablets or 3 mg tablets (lot number 3044567) were administered as a single oral dose for 85 consecutive nights during the 12-week Double-blind Treatment Period."}, "[2]": {"tested_on": "Adult Patients (Ages 18-64) with Primary Insomnia", "experiment": "Adverse events and safety, adult crossover study (Example 3)", "assay_type": "in vivo, human", "protocol": "A randomized, multi-center, double-blind, placebo-controlled, four-period crossover, dose-response study was designed to assess the effects of doxepin (1 mg, 3 mg and 6 mg) compared with placebo in patients with primary sleep maintenance insomnia.\nThe main inclusion criteria were male and/or female patients, aged 18 to 64 years, in good general health with at least a 3-month history of DSM-IV-defined primary insomnia, reporting each of the following on four of seven nights prior to PSG screening: ≤6.5 hours of total sleep time (TST), ≥60 min of WASO and ≥20 min of LSO. Doxepin HCl 1 mg, 3 mg and 6 mg capsules, and placebo capsules, were provided as a single dose for oral administration."}, "[3]": {"tested_on": "patients aged 65 years or older with primary sleep maintenance insomnia", "experiment": "Subjective sleep data, elderly crossover study (Example 1)", "assay_type": "in vivo, human", "conditions": "n = 71", "from_the_text": "“sWASO” refers to subjective wake after sleep onset (WASO).\n“sTST” refers to subjective total sleep time.\n“sNAASO” refers to subjective NAASO.\n“LSO” refers to “latency to sleep onset, typically expressed in minutes.\nThe patients report subjected data, which were consistent with the PSG data."}, "[4]": {"tested_on": "patients aged 65 years or older with primary sleep maintenance insomnia", "conditions": "Per-Protocol N = 71; for WTDS, Mean (primary efficacy variable): WTDS typically expressed in minutes", "method": "As used herein, the term “polysomnography” (PSG) refers a diagnostic test during which a number of physiologic variables are measured and recorded during sleep. Physiologic sensor leads are placed on the patient in order to record brain electrical activity, eye and jaw muscle movement, leg muscle movement, airflow, respiratory effort (chest and abdominal excursion), EKG and oxygen saturation. Information is gathered from all leads and fed into a computer and outputted as a series of waveform tracings which enable the technician to visualize the various waveforms, assign a score for the test, and assist in the diagnostic process. The primary efficacy variable, wake time during sleep (WTDS) and various secondary efficacy variables are all based on the PSG and are defined as follows.\n“Wake Time During Sleep” (WTDS), typically expressed in minutes, is the number of wake events (epochs) after the onset of persistent sleep and prior to final awakening, divided by two. Each epoch is defined as a 30-second duration on the PSG recording.\n“Wake Time After Sleep” (WTAS), typically expressed in minutes, is the number of epochs after the final awakening until the end of PSG recording (i.e., a wake epoch immediately prior to the end of the recording), divided by two.\n“Wake After Sleep Onset” (WASO) is the sum of WTDS and WTAS.\n“Latency to Persistent Sleep” (LPS), typically expressed in minutes, is the number of epochs from the beginning of the PSG recording (lights-out) to the start of the first 20 consecutive non-wake epochs, divided by two.\n“Total Sleep Time” (TST), typically expressed in minutes, is the number of non-wake epochs from the beginning of the PSG recording to the end of the recording, divided by two.\n“Sleep Efficiency” (SE) is the TST divided by the time in bed (8 hours), multiplied by 100 and expressed as a percentage. This also can be divided into SE for each third-of-the-night of sleep, reflecting the SE for each 160 minute time interval across the night. Finally, SE can be measured for individual hours during the night or sleep period, for example the final hour of the sleep period.\n“NAASO” refers to the number of awakenings after sleep onset.\nA randomized, multi-center, double-blind, placebo-controlled, four-period crossover, dose-response study was designed to assess the effects of doxepin (1 mg, 3 mg and 6 mg) compared with placebo in patients aged 65 years or older with primary sleep maintenance insomnia. Patients received a single-blind placebo for two consecutive nights during the PSG screening period, and double-blind study drug for two consecutive nights during each of the four treatment periods. […] Patients were allowed to leave the sleep center during the day after each PSG assessment was complete. A 5- or 12-day study drug-free interval separated each PSG assessment visit. The duration of study participation per patient was approximately 7 to 11 weeks.\nPatients who qualified for study entry, based on the screening PSG assessments, were randomized to a treatment sequence using a Latin square design. A final study visit was performed for patients either after completion of the four treatment periods or upon discontinuation from the study. Efficacy assessments were made at each visit and safety assessments were performed throughout the study.\nThe main inclusion criteria were male and/or female patients, aged 65 years or older, in good general health with at least a 3-month history of Diagnostic and Statistical Manual of Mental Disorders, fourth Edition (DSM-IV)-defined primary insomnia, reporting each of the following on four of seven nights prior to PSG screening: ≤6.5 hours of total sleep time (TST), ≥60 min of wakefulness after sleep onset (WASO) and ≥20 min of latency to sleep onset (LSO). Doxepin HCl 1 mg, 3 mg and 6 mg capsules, and placebo capsules, were provided as a single dose for oral administration.\nThe primary efficacy assessment was WTDS."}, "[5]": {"tested_on": "patients aged 65 years or older with primary sleep maintenance insomnia", "experiment": "Adverse events and safety, elderly crossover study (Example 1)", "assay_type": "in vivo, human", "from_the_text": "All randomized patients who received at least one dose of double-blind study medication were included in the safety analyses, which were based on observed data.\nThe adverse events are arranged by system organ class."}}, "note": "Where two headings read alike, the source gives them in different places.", "data": [{"smiles": "CN(C)CCC=C1c2ccccc2COc2ccccc21", "note": "(mixture of isomers) [Doxepin]", "values": [{"measurement": "deaths during the study or within 30 days following last dose", "setting": "[1]; 1 mg and 3 mg", "value": "no reported deaths"}, {"measurement": "Infections and Infestations, subjects (%)", "setting": "[1]; 1 mg, N = 77", "value": "12 (16%)"}, {"measurement": "Upper respiratory tract infection, subjects (%)", "setting": "[1]; 1 mg, N = 77", "value": "2 (3%)"}, {"measurement": "Urinary tract infection, subjects (%)", "setting": "[1]; 1 mg, N = 77", "value": "2 (3%)"}, {"measurement": "Infections and Infestations, subjects (%)", "setting": "[1]; 3 mg, N = 82", "value": "11 (13%)"}, {"measurement": "Upper respiratory tract infection, subjects (%)", "setting": "[1]; 3 mg, N = 82", "value": "1 (1%)"}, {"measurement": "Urinary tract infection, subjects (%)", "setting": "[1]; 3 mg, N = 82", "value": "0 (0%)"}, {"measurement": "HEADACHE: Number of Events", "setting": "[2]; 1 mg, N = 66", "value": 3}, {"measurement": "HEADACHE: Number of Patients", "setting": "[2]; 1 mg, N = 66", "value": "3 (5%)"}, {"measurement": "NASAL CONGESTION: Number of Events", "setting": "[2]; 1 mg, N = 66", "value": 1}, {"measurement": "NASAL CONGESTION: Number of Patients", "setting": "[2]; 1 mg, N = 66", "value": "1 (2%)"}, {"measurement": "HEADACHE: Number of Events", "setting": "[2]; 3 mg, N = 66", "value": 0}, {"measurement": "HEADACHE: Number of Patients", "setting": "[2]; 3 mg, N = 66", "value": "0 (0%)"}, {"measurement": "NASAL CONGESTION: Number of Events", "setting": "[2]; 3 mg, N = 66", "value": 0}, {"measurement": "NASAL CONGESTION: Number of Patients", "setting": "[2]; 3 mg, N = 66", "value": "0 (0%)"}, {"measurement": "HEADACHE: Number of Events", "setting": "[2]; 6 mg, N = 67", "value": 1}, {"measurement": "HEADACHE: Number of Patients", "setting": "[2]; 6 mg, N = 67", "value": "1 (1%)"}, {"measurement": "NASAL CONGESTION: Number of Events", "setting": "[2]; 6 mg, N = 67", "value": 0}, {"measurement": "NASAL CONGESTION: Number of Patients", "setting": "[2]; 6 mg, N = 67", "value": "0 (0%)"}, {"measurement": "LSO, Mean (SD)", "setting": "[3]; 1 mg", "value": "42.3 (32.1)"}, {"measurement": "Sleep Quality, Mean (SD)", "setting": "[3]; 1 mg", "value": "0.8 (1.0)"}, {"measurement": "sNAASO, Mean (SD)", "setting": "[3]; 1 mg", "value": "3.2 (2.1)"}, {"measurement": "sTST, Mean (SD)", "setting": "[3]; 1 mg", "value": "355.7 (63.1)"}, {"measurement": "sWASO, Mean (SD)", "setting": "[3]; 1 mg", "value": "74.3 (55.2)"}, {"measurement": "LSO, Mean (SD)", "setting": "[3]; 3 mg", "value": "42.4 (40.1)"}, {"measurement": "Sleep Quality, Mean (SD)", "setting": "[3]; 3 mg", "value": "0.9 (1.0)"}, {"measurement": "sNAASO, Mean (SD)", "setting": "[3]; 3 mg", "value": "2.9 (1.7)"}, {"measurement": "sTST, Mean (SD)", "setting": "[3]; 3 mg", "value": "362.4 (64.3)"}, {"measurement": "sWASO, Mean (SD)", "setting": "[3]; 3 mg", "value": "72.2 (56.4)"}, {"measurement": "LSO, Mean (SD)", "setting": "[3]; 6 mg", "value": "33.9 (24.8)"}, {"measurement": "Sleep Quality, Mean (SD)", "setting": "[3]; 6 mg", "value": "0.8 (1.0)"}, {"measurement": "sNAASO, Mean (SD)", "setting": "[3]; 6 mg", "value": "3.0 (1.4)"}, {"measurement": "sTST, Mean (SD)", "setting": "[3]; 6 mg", "value": "369.4 (65.3)"}, {"measurement": "sWASO, Mean (SD)", "setting": "[3]; 6 mg", "value": "71.5 (57.4)"}, {"measurement": "LPS, Mean", "setting": "[4]; 1 mg", "value": 28.3, "unit": "min"}, {"measurement": "NAASO, Mean", "setting": "[4]; 1 mg", "value": 12.3}, {"measurement": "SE, Mean", "setting": "[4]; 1 mg", "value": 78.5, "unit": "%"}, {"measurement": "TST, Mean", "setting": "[4]; 1 mg", "value": 376.8, "unit": "min"}, {"measurement": "WASO, Mean", "setting": "[4]; 1 mg", "value": 80.5, "unit": "min"}, {"measurement": "WTAS, Mean", "setting": "[4]; 1 mg", "value": 10.4, "unit": "min"}, {"measurement": "WTDS, Mean (primary efficacy variable)", "setting": "[4]; 1 mg", "value": 70.1}, {"measurement": "WTDS, Mean (primary efficacy variable)", "setting": "[4]; 1 mg, listed as doxepin", "value": "70.1 (32.78)"}, {"measurement": "LPS, Mean", "setting": "[4]; 3 mg", "value": 23.7, "unit": "min"}, {"measurement": "NAASO, Mean", "setting": "[4]; 3 mg", "value": 12.8}, {"measurement": "SE, Mean", "setting": "[4]; 3 mg", "value": 81.0, "unit": "%"}, {"measurement": "TST, Mean", "setting": "[4]; 3 mg", "value": 388.8, "unit": "min"}, {"measurement": "WASO, Mean", "setting": "[4]; 3 mg", "value": 72.3, "unit": "min"}, {"measurement": "WTAS, Mean", "setting": "[4]; 3 mg", "value": 5.9, "unit": "min"}, {"measurement": "WTDS, Mean (primary efficacy variable)", "setting": "[4]; 3 mg", "value": 66.4}, {"measurement": "WTDS, Mean (primary efficacy variable)", "setting": "[4]; 3 mg, listed as doxepin", "value": "66.4 (31.56)"}, {"measurement": "LPS, Mean", "setting": "[4]; 6 mg", "value": 22.4, "unit": "min"}, {"measurement": "NAASO, Mean", "setting": "[4]; 6 mg", "value": 12.5}, {"measurement": "SE, Mean", "setting": "[4]; 6 mg", "value": 82.8, "unit": "%"}, {"measurement": "TST, Mean", "setting": "[4]; 6 mg", "value": 397.4, "unit": "min"}, {"measurement": "WASO, Mean", "setting": "[4]; 6 mg", "value": 65.2, "unit": "min"}, {"measurement": "WTAS, Mean", "setting": "[4]; 6 mg", "value": 5.0, "unit": "min"}, {"measurement": "WTDS, Mean (primary efficacy variable)", "setting": "[4]; 6 mg", "value": 60.2}, {"measurement": "WTDS, Mean (primary efficacy variable)", "setting": "[4]; 6 mg, listed as doxepin", "value": "60.2 (28.00)"}, {"measurement": "HEADACHE: Number of Events", "setting": "[5]; 1 mg, N = 74", "value": 0}, {"measurement": "HEADACHE: Number of Patients", "setting": "[5]; 1 mg, N = 74", "value": "0 (0%)"}, {"measurement": "HEADACHE: Number of Events", "setting": "[5]; 3 mg, N = 75", "value": 0}, {"measurement": "HEADACHE: Number of Patients", "setting": "[5]; 3 mg, N = 75", "value": "0 (0%)"}, {"measurement": "HEADACHE: Number of Events", "setting": "[5]; 6 mg, N = 74", "value": 0}, {"measurement": "HEADACHE: Number of Patients", "setting": "[5]; 6 mg, N = 74", "value": "0 (0%)"}]}]}
